The values below come from US12616687B2, “Treatment of viral infection, disease or disorder using a selective sir agonist” (Prilenia Neurotherapeutics Ltd., priority 2020, dated 2026).

The test system of data set [1] is YAC128 HD striatal neurons. Put plainly: mitochondrial ROS (H2O2, MitoPY1) in YAC128 HD striatal neurons. It counts as cell-based, mouse. As to conditions: Ant A 2 μM. How it is done:
YAC128 is a mouse model of Huntington's Disease (HD), Striatal neurons from wt or YAC128 were treated or not with 1 μM pridopidine and incubated with MitoPY1 fluorescence probe. The mitochondrial respiration inhibitor Antimycin A (Ant A, 2 μM) was used to induce release of Mitochondrial H2O2 and oxidative stress. Mitochondrial H2O2 was recorded in spinning disk confocal before and after administration of Ant A (n=4, considering ˜20 cells/condition).
Striatal neurons from YAC128 HD mice were treated with 1 μM pridopidine prior to induction of ROS production by the mitochondrial respiration inhibitor antimycin A (Ant A).

The conditions of data set [2]: at the concentration showing anti-viral activity; cited from earlier work.
Data set [3] concerns lymphoblasts from HD patients. Put plainly: mitochondrial membrane potential (TMRE) in control and S1R-KD HD lymphoblasts. It counts as cell-based, human. How it is done:
Cells were treated with pridopidine 5 μM, then challenged with 0.1 mM H2O2.

Another data set concerns SARS-CoV-2. As to conditions: viral titer assay; cited from earlier work.
Data set [4] has as its target T1, S1R (Homo sapiens, UniProt Q99720). The note with it: cited from earlier work.
In another data set the target is S2R (Homo sapiens, UniProt Q5BJF2). As to conditions: cited from earlier work.
Sequence of S2R (Q5BJF2 whole entry): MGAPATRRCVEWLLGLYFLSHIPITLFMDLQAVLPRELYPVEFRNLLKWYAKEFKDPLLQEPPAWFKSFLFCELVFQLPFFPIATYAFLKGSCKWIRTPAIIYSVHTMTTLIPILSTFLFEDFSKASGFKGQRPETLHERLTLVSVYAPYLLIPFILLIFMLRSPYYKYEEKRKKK
The next data set relates to ATF6. The note with it: myc-Htt96Q cells. How it is done:
Cells expressing myc-Htt96Q (mutant Htt) were treated with pridopidine 0.03 and 3 μM. Immunoblots were reacted with anti-ATF6 quantified and normalized with anti-tubulin as loading controls.

A further data set deals with eIF2α-phosphorylation. Briefly: eIF2α-phosphorylation, ER stress induced by thapsigargin. It counts as cell-based. As to conditions: 2 μg/ml thapsigargin. How it is done:
HEK293 cells transfected with Htt20Q-mCherry (wt HTT) were treated with 2 μg/ml thapsigargin to induce ER stress.

In data set [5] the target is T1, S1R.
Data set [6] has as its system Striatal WT and YAC128 (HD) neurons. As to conditions: 24 h; for mitochondrial membrane potential (MMP) in HD (YAC128) neurons: 0.1 and 1 μM. An excerpt:
The role of S1R in regulating mitochondrial membrane potential (MMP) was studied in striatal neurons from wild-type (WT) control and YAC128 HD mice.

Data set [7] deals with interferon-stimulated genes (ISGs).
For a further data set, the system named is XBP1s. The note with it: myc-Htt96Q cells, 3 μM (p<0.01).
The test system of a further data set is CHOP. Here is the method:
(§1) Cells expressing myc-Htt96Q (mutant Htt) or myc-Htt20Q (wt Htt) were treated with pridopidine 3 uM. Immunoblots were reacted with anti-ATF4 (FIG. 7A), anti-CHOP (FIG. 7B) and anti-GADD34 (FIG. 7C), quantified and normalized with anti-actin or anti-tubulin as loading controls.

A further data set relates to GADD34. Here is the method: as §1
Another data set has as its system ATF4. How it is done:
as §1

[8] abbreviates: pridopidine 5 μM, 24 h, 0.1 mM H2O2.
[9] abbreviates: HEK293, Htt96Q-induced ER stress.

Structures are written as SMILES. Several values for one entry are separate records, joined by “and”; a condition that tells them apart may be missing. Equal entries are not always repeated. Entries after “also recorded” stand apart in the source; their conditions may differ. Where two headings read alike, the source gives them in different places.

T1 sequence (Q99720 whole entry): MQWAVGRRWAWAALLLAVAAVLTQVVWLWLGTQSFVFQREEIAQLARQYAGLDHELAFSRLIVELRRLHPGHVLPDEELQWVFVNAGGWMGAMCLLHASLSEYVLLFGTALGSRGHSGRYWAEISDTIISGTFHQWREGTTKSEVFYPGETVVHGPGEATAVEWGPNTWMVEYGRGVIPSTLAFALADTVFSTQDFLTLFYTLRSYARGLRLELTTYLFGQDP

Turning to `CCCCCC[C@H]1C(=O)O[C@H](C)[C@H](NC(=O)c2cccc(NC=O)c2O)C(=O)O[C@@H](C)[C@@H]1OC(=O)CC(C)C` [Ant A, Antimycin A, reference compound], the “increase of mitochondrial H2O2 / ROS production” value in data set [1] (untreated YAC128 neurons) was roughly 2 fold.
As for `CN1CCC[C@@H]1CCO[C@](C)(c1ccccc1)c1ccc(Cl)cc1` [Clemastine], the “reduction in cell viability / cell death” value in [2] is recorded as roughly 40%.
On to `OO` [Compound H2O2, H2O2, reference compound], for which, in data set [3] (0.1 mM H2O2, HD lymphoblasts), the “reduction of MMP in S1R+/+ cells” value amounted to 25%. Moreover, the “reduction of MMP in S1R KD cells” value in data set [3] (0.1 mM H2O2, HD lymphoblasts, S1R knocked down ~83%) is listed as 75%.
For `O=C(CCCN1CCC(O)(c2ccc(Cl)cc2)CC1)c1ccc(F)cc1` [Haloperidol], in data set [2], the “reduction in cell viability / cell death” value is listed as roughly 30%.
For the compound `CCN(CCO)CCCC(C)Nc1ccnc2cc(Cl)ccc12` (stereo not drawn) [hydroxychloroquine], the “concentration at which anti-viral activity was demonstrated” value in the data set on SARS-CoV-2 is roughly 2 µM. The figures for the Ki at S1R [4] and on S2R were 200 nM and 800 nM, respectively. Further, in [2], the “reduction in cell viability / cell death” value is roughly 30%.
Regarding `CCCN1CCC(c2cccc(S(C)(=O)=O)c2)CC1` [pridopidine, 4-[3-(methylsulfonyl)phenyl]-1-propyl-piperidine], the “reduction of ATF6” value is roughly 10% in the data set with ATF6 (0.03 μM); 35% and ~30% with ATF6 (3 μM). Besides, the “eIF2α-p (ratio of eIF2α-P/eIF2α)” value in the data set on eIF2α-phosphorylation (HEK293, wt HTT, pridopidine 3 μM, 8 hours) is given as “caused a reduction; also recorded: reduces p-eIF2α levels”. Further, at S1R [5], the “fold higher affinity for the S1R vs the S2R” value is given as 95 fold. In addition, the results for the “mitochondrial membrane potential (MMP) in WT neurons” value in data set [6] (0.1 μM) and in data set [6] (1 μM) were “trend towards increasing MMP” and “significant increase”, respectively. In addition, the “mitochondrial membrane potential (MMP) in HD (YAC128) neurons” value in [6] is “significant increase”; in [6] (listed as Pridopidine), “significantly restores the impaired MMP”. In addition, in data set [6] (concentration not stated (FIG. 11 legend)), the “mitochondrial membrane potential (MMP) in wt neurons” value is recorded as “enhances MMP”. For the same compound, in [7], the “reduction of expression of ISGs (IFIT1, EIF2AK2, IRF7 indexed together)” value is 30-50%. Further, the “reduction in XBP1s mRNA levels” value in the data set with XBP1s is listed as 25%. Further, the “mitochondrial ROS (H2O2) production after Ant A” value in [1] (YAC128 striatal neurons, pridopidine 1 μM) is “robust and significant reduction of ROS production by mitochondria back to normal levels; also recorded: inhibits H2O2 release and oxidative stress”. Also, in data set [3] (setting [8]), the “MMP after H2O2 challenge in S1R KD cells” value is “abolished and not”. Moreover, the “MMP after H2O2 challenge in S1R+/+ cells” value in [3] (setting [8]) is “completely restored”. Also, the “CHOP protein level after treatment” value with CHOP (setting [9]) is on record as “normal wt levels”. The “reduction of CHOP levels” value with CHOP (myc-Htt96Q cells, 3 μM) is on record as roughly 2 fold. Further, in the data set on GADD34 (setting [9]), the “GADD-34 protein level after treatment” value is on record as “normal wt levels”. In addition, in the data set with GADD34 (myc-Htt96Q cells, 3 μM (p<0.01)), the “reduction of GADD-34 levels” value is reported as roughly 2.5 fold. Besides, in the data set on ATF4 (setting [9]), the “ATF4 protein level after treatment” value is reported as “normal wt levels”. The “reduction of ATF4 levels” value with ATF4 (myc-Htt96Q cells, 3 μM (p<0.05)) was roughly 4.5 fold.
For `C/C=C(/C)C(=O)O[C@H]1C(C)=C2[C@H]([C@@H]1OC(=O)CCCCCCC)[C@@](C)(OC(C)=O)C[C@H](OC(=O)CCC)[C@@]1(O)[C@H]2OC(=O)[C@@]1(C)O` [thapsigargin, reference compound], the “increase in phosphorylated eIF2α (eIF2α-p)” value in the data set on eIF2α-phosphorylation (HEK293, myc-Htt20Q) worked out at 70%.

The Ki is the equilibrium dissociation constant of an inhibitor or competing ligand from its target.
